According to PubChem BioAssay AID1259407 (Chemical Carcinogenesis Research Information System (CCRIS), 2018):
The source made the active and inactive calls. How the calls were made is not given here.

Test system: CCRIS mutagenicity, Ames/micronucleus/aberration tests
Assay: CCRIS mutagenicity studies
[1] = Test System: AMES SALMONELLA TYPHIMURIUM, Strain/Indicator: TA100, Metabolic Activation: RAT, LIVER, S-9, AROCLOR 1254, Method: STANDARD PLATE

In the case of `c1ccsc1`, the mutagenic call (Test System: AMES SALMONELLA TYPHIMURIUM, Strain/Indicator: TA97, Metabolic Activation: HAMSTER, LIVER, AROCLOR 1254 (10%), Method: PREINCUBATION) is reported as “inactive; negative”, the mutagenic call (Test System: AMES SALMONELLA TYPHIMURIUM, Strain/Indicator: TA97, Metabolic Activation: HAMSTER, LIVER, S-9, AROCLOR 1254 (30%), Method: PREINCUBATION) is reported as “inactive; negative” and the mutagenic call (Test System: AMES SALMONELLA TYPHIMURIUM, Strain/Indicator: TA97, Metabolic Activation: NONE, Method: PREINCUBATION) is reported as “inactive; negative”. The mutagenic call (Test System: AMES SALMONELLA TYPHIMURIUM, Strain/Indicator: TA97, Metabolic Activation: RAT, LIVER, S-9, AROCLOR 1254 (10%), Method: PREINCUBATION) was “inactive; negative”, the mutagenic call (Test System: AMES SALMONELLA TYPHIMURIUM, Strain/Indicator: TA97, Metabolic Activation: RAT, LIVER, S-9, AROCLOR 1254 (30%), Method: PREINCUBATION) was “inactive; negative” and the mutagenic call (Test System: AMES SALMONELLA TYPHIMURIUM, Strain/Indicator: TA98, Metabolic Activation: HAMSTER, LIVER, S-9, AROCLOR 1254 (10%), Method: PREINCUBATION) was “inactive; negative”. The mutagenic call (Test System: AMES SALMONELLA TYPHIMURIUM, Strain/Indicator: TA98, Metabolic Activation: HAMSTER, LIVER, S-9, AROCLOR 1254 (30%), Method: PREINCUBATION) was “inactive; negative”, the mutagenic call (Test System: AMES SALMONELLA TYPHIMURIUM, Strain/Indicator: TA98, Metabolic Activation: NONE, Method: PREINCUBATION) was “inactive; negative” and the mutagenic call (Test System: AMES SALMONELLA TYPHIMURIUM, Strain/Indicator: TA98, Metabolic Activation: RAT, LIVER, S-9, AROCLOR 1254 (10%), Method: PREINCUBATION) was “inactive; negative”. For the same molecule, the mutagenic call (Test System: AMES SALMONELLA TYPHIMURIUM, Strain/Indicator: TA98, Metabolic Activation: RAT, LIVER, S-9, AROCLOR 1254 (30%), Method: PREINCUBATION) was “inactive; negative”, the mutagenic call (Test System: AMES SALMONELLA TYPHIMURIUM, Strain/Indicator: TA98, Metabolic Activation: RAT, LIVER, S-9, AROCLOR 1254, Method: PREINCUBATION) was “inactive; negative” and the mutagenic call (Test System: AMES SALMONELLA TYPHIMURIUM, Strain/Indicator: TA100, Metabolic Activation: HAMSTER, LIVER, S-9, AROCLOR 1254 (10%), Method: PREINCUBATION) was “inactive; negative”. The mutagenic call (Test System: AMES SALMONELLA TYPHIMURIUM, Strain/Indicator: TA100, Metabolic Activation: HAMSTER, LIVER, S-9, AROCLOR 1254 (30%), Method: PREINCUBATION) was “inactive; negative”, the mutagenic call (Test System: AMES SALMONELLA TYPHIMURIUM, Strain/Indicator: TA100, Metabolic Activation: NONE, Method: PREINCUBATION) was “inactive; negative” and the mutagenic call (Test System: AMES SALMONELLA TYPHIMURIUM, Strain/Indicator: TA100, Metabolic Activation: RAT, LIVER, S-9, AROCLOR 1254 (10%), Method: PREINCUBATION) was “inactive; negative”. For the same molecule, the mutagenic call (Test System: AMES SALMONELLA TYPHIMURIUM, Strain/Indicator: TA100, Metabolic Activation: RAT, LIVER, S-9, AROCLOR 1254 (30%), Method: PREINCUBATION) was “inactive; negative”, the mutagenic call (Test System: AMES SALMONELLA TYPHIMURIUM, Strain/Indicator: TA100, Metabolic Activation: RAT, LIVER, S-9, AROCLOR 1254, Method: PREINCUBATION) was “inactive; negative” and the mutagenic call (Test System: AMES SALMONELLA TYPHIMURIUM, Strain/Indicator: TA102, Metabolic Activation: NONE, Method: PREINCUBATION) was “inactive; negative”. The mutagenic call (Test System: AMES SALMONELLA TYPHIMURIUM, Strain/Indicator: TA102, Metabolic Activation: RAT, LIVER, S-9, AROCLOR 1254, Method: PREINCUBATION) was “inactive; negative”, the mutagenic call (Test System: AMES SALMONELLA TYPHIMURIUM, Strain/Indicator: TA1535, Metabolic Activation: HAMSTER, LIVER, S-9, AROCLOR 1254 (10%), Method: PREINCUBATION) was “inactive; negative” and the mutagenic call (Test System: AMES SALMONELLA TYPHIMURIUM, Strain/Indicator: TA1535, Metabolic Activation: HAMSTER, LIVER, S-9, AROCLOR 1254 (30%), Method: PREINCUBATION) was “inactive; negative”. The mutagenic call (Test System: AMES SALMONELLA TYPHIMURIUM, Strain/Indicator: TA1535, Metabolic Activation: NONE, Method: PREINCUBATION) was “inactive; negative”, the mutagenic call (Test System: AMES SALMONELLA TYPHIMURIUM, Strain/Indicator: TA1535, Metabolic Activation: RAT, LIVER, S-9, AROCLOR 1254 (10%), Method: PREINCUBATION) was “inactive; negative” and the mutagenic call (Test System: AMES SALMONELLA TYPHIMURIUM, Strain/Indicator: TA1535, Metabolic Activation: RAT, LIVER, S-9, AROCLOR 1254 (30%), Method: PREINCUBATION) was “inactive; negative”. For the same molecule, the mutagenic call (Test System: AMES SALMONELLA TYPHIMURIUM, Strain/Indicator: TA1537, Metabolic Activation: HAMSTER, LIVER, S-9, AROCLOR 1254 (10%), Method: PREINCUBATION) was “inactive; negative”, the mutagenic call (Test System: AMES SALMONELLA TYPHIMURIUM, Strain/Indicator: TA1537, Metabolic Activation: NONE, Method: PREINCUBATION) was “inactive; negative” and the mutagenic call (Test System: AMES SALMONELLA TYPHIMURIUM, Strain/Indicator: TA1537, Metabolic Activation: RAT, LIVER, S-9, AROCLOR 1254 (10%), Method: PREINCUBATION) was “inactive; negative”. For the same molecule, the mutagenic call (Test System: Mouse lymphoma, Strain/Indicator: L5178Y (tk+/tk-), Metabolic Activation: None, Method: Suspension/plate) was “active; positive” and the mutagenic call (Test System: Mouse lymphoma, Strain/Indicator: L5178Y (tk+/tk-), Metabolic Activation: Rat, Liver, S-9, Aroclor 1254, Method: Suspension/plate) was “active; inconclusive (previous evaluation positive)”.
With `C=CCn1cc2c3c(cccc31)C1C[C@@H](C)CN(C#N)[C@@H]1C2` (stereo partly drawn) the mutagenic call [1] was “active; positive”.
With `Cc1cc(N)c([N+](=O)[O-])cc1N` the mutagenic call (Test System: AMES SALMONELLA TYPHIMURIUM, Strain/Indicator: TA98, Metabolic Activation: NONE, Method: STANDARD PLATE) was “inactive; negative”, the mutagenic call (Test System: AMES SALMONELLA TYPHIMURIUM, Strain/Indicator: TA98, Metabolic Activation: RAT, LIVER, S-9, AROCLOR 1254, Method: STANDARD PLATE) was “active; positive” and the mutagenic call (Test System: AMES SALMONELLA TYPHIMURIUM, Strain/Indicator: TA100, Metabolic Activation: NONE, Method: STANDARD PLATE) was “inactive; negative”. For the same molecule, the mutagenic call [1] was “inactive; negative”, the mutagenic call (Test System: AMES SALMONELLA TYPHIMURIUM, Strain/Indicator: TA1535, Metabolic Activation: NONE, Method: STANDARD PLATE) was “inactive; negative” and the mutagenic call (Test System: AMES SALMONELLA TYPHIMURIUM, Strain/Indicator: TA1535, Metabolic Activation: RAT, LIVER, S-9, AROCLOR 1254, Method: STANDARD PLATE) was “inactive; negative”. The mutagenic call (Test System: AMES SALMONELLA TYPHIMURIUM, Strain/Indicator: TA1537, Metabolic Activation: NONE, Method: STANDARD PLATE) was “inactive; negative”, the mutagenic call (Test System: AMES SALMONELLA TYPHIMURIUM, Strain/Indicator: TA1537, Metabolic Activation: RAT, LIVER, S-9, AROCLOR 1254, Method: STANDARD PLATE) was “active; positive” and the mutagenic call (Test System: AMES SALMONELLA TYPHIMURIUM, Strain/Indicator: TA1538, Metabolic Activation: NONE, Method: STANDARD PLATE) was “inactive; negative”. The mutagenic call (Test System: AMES SALMONELLA TYPHIMURIUM, Strain/Indicator: TA1538, Metabolic Activation: RAT, LIVER, S-9, AROCLOR 1254, Method: STANDARD PLATE) was “active; positive”.
For `CN(CO)N=O`, the mutagenic call (Test System: CHINESE HAMSTER V-79, Strain/Indicator: V-79/OUABAIN, Metabolic Activation: NONE) was “active; positive”.
In the case of `CCN(COC(C)=O)N=O`, the mutagenic call (Test System: UDS RAT UROTHELIAL CELLS, Strain/Indicator: THY INCORP, Metabolic Activation: NONE) is reported as “active; positive”.
In the case of `CCCCCC(=O)CC`, the mutagenic call (Test System: CHINESE HAMSTER V-79, Strain/Indicator: V-79 (HPRT)/6-THIOGUANINE, Metabolic Activation: NONE, Method: STANDARD PLATE) is reported as “inactive; negative” and the mutagenic call (Test System: CHINESE HAMSTER V-79, Strain/Indicator: V-79 (HPRT)/6-THIOGUANINE, Metabolic Activation: RAT LIVER S-9, Method: STANDARD PLATE) is reported as “inactive; negative”.
For `C[N+](C)(C)NCCC(=O)[O-]`, the mutagenic call (Test System: AMES SALMONELLA TYPHIMURIUM, Strain/Indicator: TA98, Metabolic Activation: NONE) was “inactive; negative”, the mutagenic call (Test System: AMES SALMONELLA TYPHIMURIUM, Strain/Indicator: TA98, Metabolic Activation: RAT LIVER S-9, AROCLOR 1254) was “inactive; negative” and the mutagenic call (Test System: AMES SALMONELLA TYPHIMURIUM, Strain/Indicator: TA100, Metabolic Activation: NONE) was “inactive; negative”. The mutagenic call (Test System: AMES SALMONELLA TYPHIMURIUM, Strain/Indicator: TA100, Metabolic Activation: RAT LIVER S-9, AROCLOR 1254) was “inactive; negative”.
